Where a SMILES comes first, the peptide text is derived from it. Bridges are numbered along the chain shown (N, C = ends). Where no end group is shown, it is not given here.
Assays:
TNFα production = settings: stimulated monocytes; by promoting TNFα mRNA degradation; cited from earlier work
From the text: (§1) A range of biologics targeting TNFα have been licensed for the treatment of various inflammatory diseases, such as rheumatoid arthritis and Crohn’s disease. Although these agents have high potency and specificity, they are limited by their high production costs and potential immunogenicity. […] Also, their large molecular weight and low oral stability means their administration is only feasible through injection [[12 ...

TNFα [1] = settings: cited from earlier work
Method: Small molecule with anti-TNFα activity with compact 3D conformations containing trifluoromethylphenyl indole and chromone moieties have previously been designed. These compounds bind with high affinity (IC50 = 13 μM) to a hydrophobic binding pocket formed by six tyrosine residues (Y59, Y119 and Y151 from chain A and B) at the interface of TNFα dimer. Alternative binding pockets that bind small molecules have also been identified from the predicted TNFα-TNFR1 complex and these involve the residues H66, L67 and L71 of TNFR1 and residues R82, F90 and F127 in TNFα [18]. Recently, a small ...

HEK-Blue TNFα cells = settings: 24 h, OD 540 nm, at the concentration used to test anti-TNFα activity, one duplicate
Method: Therefore, this can be used as preliminary data for further biological evaluations.
This assay was performed with one duplicate, and the error bars show standard error.
The Vybrant®® MTT assay (Thermo Fisher Scientific) was performed following the manufacturer protocol. In this assay, cell permeable tetrazolium dye (yellow) was […] in viable cells to yield the water-insoluble formazan (purple) after incubation with HEK-TNFα cells. Formazan was then solubilised and quantified by measuring the UV absorbance at 540 nm.

recombinant human TNFα = molecular target: T1, recombinant human TNFα (Homo sapiens, UniProt P01375); assay: HEK-Blue TNFα sensor cell assay (NF-ĸB-induced SEAP reporter); assay type: cell-based
T1 construct: purchased InvivoGen
T1 sequence (P01375 77-233 limits assumed): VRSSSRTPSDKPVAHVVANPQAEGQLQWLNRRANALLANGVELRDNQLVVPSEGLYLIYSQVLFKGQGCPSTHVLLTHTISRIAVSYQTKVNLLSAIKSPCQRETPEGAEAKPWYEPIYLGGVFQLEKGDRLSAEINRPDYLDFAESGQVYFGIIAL
Method: In the assay, the cells are transfected with a secretory alkaline phosphatase reporter gene which is downstream of the NF-ĸB promoter and expressed in response to TNFα receptor activation. The alkaline phosphatase activity was then quantified by measuring the absorbance (λ = 620 nm) of coloured substrate. […] Activation of HEK-Blue TNFα cells by 1 ng/mL of human TNFα (InvivoGen) in the presence and absence of anti-hTNFα antibody (InvivoGen) were used as positive and negative controls in the anti-TNFα assay (Figure 3).
Peptides were dissolved in DMSO and solutions were diluted with the cell culture media so the final concentration of DMSO is 1%. Blank experiments with 1% DMSO were carried out.
TNFα sensor cells (HEK-Blue) were grown in Dulbecco’s Modified Eagle’s medium (DMEM) containing 4.5 g/L glucose and supplemented with 10% [v/v] heat-inactivated foetal bovine serum, 2 mM L-glutamine, 100 μg/mL normocin, 50 U/mL penicillin and 50 μg/mL streptomycin. Selective antibiotics added to the culture medium include 100 μg/mL zeocin and 1 μg/mL puromycin and avoided in initial cultures (first 2 passages). Maintenance cultures were kept in T-75 cell culture flasks and incubated in humidified incubator with 5% [v/v] […]
can then be quantified in cells supernatant (20 μL) by the reaction with 180 µL of QUANTI‐
Blue™, a reagent that turns from purple to blue in the presence of SEAP. Quantification of […]

[2] = qualitative; reason for NMR in methanol-d3
TNFα [3] = system: TNFα; parameters: method as in PMID 7756262; settings: K562 cells, 125I-labelled TNFα; cited from earlier work
[4] = system: menin-MLL protein–protein interaction; settings: cited from earlier work
From the text: (§2) This was achieved by producing a cyclic peptide with higher target specificity compared to small molecules and low potential of immunogenicity when compared with biologics. Protein loops are often involved in the biomolecular recognition of proteins. Loop peptidomimetics have previously been introduced as a new class of bioactive agents. The ...

[5] = system: protein kinase 2 regulatory subunit (CK2β) / catalytic subunit interaction; settings: cited from earlier work
From the text: as §2

[6] = cited from earlier work
From the text: as §1

[7] = molecular target: recombinant human tumour necrosis factor alpha (TNFα) (human) (UniProt P01375)
Sequence of recombinant human tumour necrosis factor alpha (TNFα) (human) (P01375 77-233): as the sequence (P01375 77-233 limits assumed) above

Question: Which “effect on TNFα production” value (TNFα production) does the source give for O=C1CCC(N2C(=O)c3ccccc3C2=O)C(=O)N1 (stereo not shown) [Thalidomide] here?
Answer: The value was “inhibits TNFα production”.

Question: Which “effect on TNFα trimer in co-crystal structure” value (TNFα [1]) does the source give for Cc1ccc(C)c(Cn2c(CO)nc3ccccc32)c1 [UCB-6876] here?
Answer: Its value is “change in the spatial arrangement of the TNFα trimer and a loss of its 3-fold symmetry”.

Question: Which “cytotoxicity (MTT)” value (HEK-Blue TNFα cells) does the source give for CC(C)C[C@@H]1NC(=O)[C@H](Cc2ccc(O)cc2)NC(=O)[C@H](CCC(N)=O)NC(=O)[C@H](CO)NC(=O)[C@H](Cc2c[nH]c3ccccc23)NC(=O)[C@@H](NC(=O)[C@@H](N)Cc2ccc(O)cc2)CSSC[C@@H](C(=O)N[C@@H](Cc2ccc(O)cc2)C(=O)O)NC1=O [WP9QY] here?
Answer: The value was “no significant cytotoxicity”.

Question: What about the IC50 (recombinant human TNFα) of the same molecule?
Answer: The IC50 was 122 µM.

Question: With CC(C)C[C@@H]1NC(=O)[C@H](CC(N)=O)NC(=O)[C@H](CCC(=O)O)NC(=O)[C@H](CO)NC(=O)[C@H](Cc2c[nH]c3ccccc23)NC(=O)[C@H](Cc2ccc(O)cc2)NC(=O)[C@H](Cc2c[nH]cn2)NC(=O)CNC(=O)[C@@H]2CCCN2C(=O)[C@H](CCC(N)=O)NC(=O)[C@H](Cc2ccccc2)NC1=O [compound 1] (cyclo(HYWSENLFQPG)) as the molecule, how does the “cytotoxicity (MTT)” value (HEK-Blue TNFα cells) read?
Answer: Its value is “no significant cytotoxicity”.

Question: And the solubility in water [2]?
Answer: Its solubility in water is “low solubility”.

Question: And the “concentration achieving inhibition of TNFα activity by 35%” value (recombinant human TNFα; 35% inhibition, 1 ng/mL recombinant human TNFα, 24 h, 1% DMSO, absorbance 620 nm, duplicates)?
Answer: The value was 117.4 µM.

Question: With Cc1ccc(C(=O)Nc2ccc(S(=O)(=O)O)c3cc(S(=O)(=O)O)cc(S(=O)(=O)O)c23)cc1NC(=O)c1cccc(NC(=O)Nc2cccc(C(=O)Nc3cc(C(=O)Nc4ccc(S(=O)(=O)O)c5cc(S(=O)(=O)O)cc(S(=O)(=O)O)c45)ccc3C)c2)c1 [suramin] as the molecule, how does the “effect on TNFα oligomer” value (TNFα [3]) read?
Answer: The value was “Deoligomerisation of TNFα”.

Question: For MCP-1, which “inhibition of menin-MLL interaction” value [4] is on record?
Answer: Its value is “inhibitor of the menin-MLL protein–protein interaction”.

Question: With “cyclo-GCRLYGFKIHGCG [cyclic peptide derived from the regulatory subunit (CK2β) of protein kinase 2]” as the molecule, how does the “inhibition of CK2β interaction with catalytic subunit” value [5] read?
Answer: Its value is “inhibits the interaction with the associated catalytic subunit”.

Question: For “infliximab: large molecule biologic targeting TNFα”, which adverse reaction [6] is on record?
Answer: Its adverse reaction is “associated with development of infusion reaction”.

Question: Which concentration that inhibits TNFα activity by 35% in HEK-Blue TNFα sensor cells (NF-kB-driven secreted alkaline phosphatase), 1 ng/mL human TNFα, 24 h; the pair said to be blocked is TNFα with TNFR-1 [7] does the source give for YCWSQYLCY (disulfide 2-8 (inferred)) [WP9QY] here?
Answer: Its concentration that inhibits TNFα activity by 35% in HEK-Blue TNFα sensor cells (NF-kB-driven secreted alkaline phosphatase), 1 ng/mL human TNFα, 24 h; the pair said to be blocked is TNFα with TNFR-1 is 97.2 µM.

Question: For HYWSENLFQPG (cyclised head to tail (N- to C-) via a proline-glycine linker) [cyclic peptide 1 (WP9 loop peptidomimetic 1)], which concentration that inhibits TNFα activity by 35% in HEK-Blue TNFα sensor cells (NF-kB-driven secreted alkaline phosphatase), 1 ng/mL human TNFα, 24 h; the pair said to be blocked is TNFα with TNFR-1 [7] is on record?
Answer: The concentration that inhibits TNFα activity by 35% in HEK-Blue TNFα sensor cells (NF-kB-driven secreted alkaline phosphatase), 1 ng/mL human TNFα, 24 h; the pair said to be blocked is TNFα with TNFR-1 was 117 µM.
